Results reported in patent US20250325529A1, “INHIBITORS OF FATTY ACID BINDING PROTEINS (FABPs), METHODS OF USE AND METHODS OF MAKING” (Celloram, inc., priority 2024, published 2025).
“Also recorded” adds a separate entry of the source.

What was measured:
[1] = tested on: Escherichia coli tester strain WP2 uvrA (pKM101); assay: Ames test (Bacterial Reverse Mutation Test), E. coli; type: cell-based
Protocol: PD152 (compound 2) was tested for genotoxic and cytotoxic side effects by Ames test. The Ames test is a Bacterial Reverse Mutation Test of mutagenicity that utilizes Salmonella typhimurium tester strains TA98, TA100, TA1535, TA1537 and Escherichia coli tester strain WP2 uvrA (pKM101), both in the presence and absence of S9.
The compound PD152 was tested at 10 concentrations (0.032-1000 μg/plate) in the presence of, or absence of, the hepatic enzyme S9.

[2] = Single dose IV and PO PK study in C57BL/6 mice; type: in vivo; conditions: male C57BL/6 mice
Protocol: C57BL/6 male mice or Han Wistar rats were used, n=3 for each administration route and compound. Single dose of each compound was administered orally (PO, 10 mg/Kg) or by intravenous administration (IV, 1 mg/Kg). Following intravenous and oral administration, blood samples (ca 0.2 mL) were collected and compound amount was measured by HLPC. For IV group, blood samples were collected at 0.083, 0.25, 0.5, 1, 2, 4, 6, 8, and 24 hours post-dose. For PO group, blood samples were collected at 0.25, 0.5, 1, 2, 4, 6, 8, and 24 hours post-dose.

[3] = tested on: OVCAR5 cells; assay: Proliferation assay (Incucyte confluency), OVCAR5; type: cell-based, human; conditions: 4 days
Protocol: COS-7, MDA-MB-231, and HepG2, were cultured in Dulbecco's modified Eagle's medium (DMEM) supplemented with 10% fetal bovine serum (Invitrogen Life Sciences, Carlsbad, CA). BT-549, OVCAR5 and OVCAR8 cells were cultured in L-Glutamine containing RPMI medium supplemented with 10% fetal calf serum (Invitrogen Life Sciences, Carlsbad, CA). The primary Human Mammary Epithelial Cells (HMEC) were cultured in mammary epithelial cell complete medium (basal medium plus rH-Insulin (5 μg/mL); L-Glutamine (6 mM); Epinephrine (1 μM); Apo-Transferrin (5 μg/mL); rH-TGF-α (0.5 ng/mL); ExtractP (0.4%); Hydrocortisone Hemisuccinate (100 ng/mL)).
2000 cells were plated in each well of 96-well plate. The next day cells were treated with compounds and incubated in Incucyte for 4 days. Images taken every 4 hours for the duration of the time were analyzed to calculate percentage of confluency in response to the treatments. Growth inhibition was calculated as 1—(percentage of viable cells out of untreated cells).

[4] = target: FABP3 (Homo sapiens (Human), UniProt P05413); assay: Fluorescence (ANS) competition binding assay, FABP3; conditions: ANS displacement
Protocol: (§1) This example illustrates a two-step fluorescence binding assay study used to determine the binding affinity of the various inhibitor compounds disclosed herein with the various FABPs: FABP3, FABP4, FABP5 and FABP7. Further secondary screening studies were carried out for compounds with high binding affinities toward the FABPs and based on their ability to activate the nuclear receptors PPARα, PPARγ, or PPARδ.
(§2) Binding assays for FABP3, FABP4, FABP5 and FABP7 were carried out by fluorescence titrations. His-tagged FABPs were bacterially expressed in E. coli, purified using Ni Sepharose beads, and the equilibrium dissociation constants (Kd) that characterize their interactions with different inhibitor compounds were measured by fluorescence competition assays. The method entails two steps as described in e.g., Lin, Q. et al., “Ligand selectivity of the peroxisome proliferator-activated receptor alpha,” Biochemistry 38, 185-190, doi:10.1021/bi9816094 [pii](1999). In the first step, Kd for the association of the protein with the fluorescent fatty acid probe ANS was measured. Protein (2 μM) was titrated with ANS from a concentrated solution in DMSO. Ligand binding was monitored by following the increase in the fluorescence of the ligand upon binding to the protein, and Kd for the association of ANS with the each FABP was computed from titration curves as described in e.g., Norris, A. W. & Li, E., “Fluorometric titration of the CRABPs,” Methods Mol Biol 89, 123-139 (1998)). In the second step, Kds for binding of non-fluorescent ligands were measured by monitoring their ability to displace ANS in the binding pocket of the protein. Each FABP was precomplexed with ANS at 1:1 molar ratio and titrated with the different compounds whose binding was reflected by a decrease in probe fluorescence. Kds were extracted from the EC50 of the competition curve and the measured Kd for ANS.

[5] = target: FABP7 (Homo sapiens (Human), UniProt O15540); assay: Fluorescence (ANS) competition binding assay, FABP7; conditions: ANS displacement
Protocol: as §1, §2

[6] = target: PPARα (Homo sapiens (Human), UniProt Q07869); assay: Transcriptional activation assay in COS7 cells, PPARα; type: cell-based; conditions: PPRE luciferase reporter, PD151 and PD152 at 10 μM
Protocol: COS-7 were cultured in 6-well plates and co-transfected with either a luciferase reporter driven by 3 copies of a PPRE and expression vector for either PPARδ, PPARα or PPARγ together with a vector harboring cDNA for β-galactosidase, serving as a transfection control. To test whether FABP4 or FABP5 mediate activation of their cognate receptors PPARγ and PPARδ, respectively, cells were also co-transfected with a plasmid harboring sequence of either FABP4 or FABP5. 18 h post-transfection, cells were placed in a serum-free medium and treated with agonist/compound. 18 h. later, cells were lysed, luciferase activity was assayed (Promega, WI, USA) and corrected for transfection efficiency by the activity of β-galactosidase.
Transcriptional activation assays were carried out utilizing COS7 cells as described above.

[7] = presence of S9, 0.0312 μg/plate
[8] = mouse, plasma, intravenous 1 mg/kg

Sequence of PPARα (Q07869 whole entry, species assumed): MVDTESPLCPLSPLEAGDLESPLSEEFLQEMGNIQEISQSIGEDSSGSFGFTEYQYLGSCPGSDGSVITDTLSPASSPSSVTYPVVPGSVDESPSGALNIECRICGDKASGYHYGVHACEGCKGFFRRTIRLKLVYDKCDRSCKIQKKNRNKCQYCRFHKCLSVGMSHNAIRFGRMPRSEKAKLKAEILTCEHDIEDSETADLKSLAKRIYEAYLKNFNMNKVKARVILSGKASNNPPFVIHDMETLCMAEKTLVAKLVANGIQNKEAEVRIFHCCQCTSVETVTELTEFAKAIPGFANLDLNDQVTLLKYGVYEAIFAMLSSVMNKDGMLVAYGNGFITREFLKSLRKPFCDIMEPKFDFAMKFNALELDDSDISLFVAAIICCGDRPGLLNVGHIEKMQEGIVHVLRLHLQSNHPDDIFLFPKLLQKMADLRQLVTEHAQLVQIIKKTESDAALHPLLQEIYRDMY
Sequence of FABP3 (P05413 whole entry, species assumed): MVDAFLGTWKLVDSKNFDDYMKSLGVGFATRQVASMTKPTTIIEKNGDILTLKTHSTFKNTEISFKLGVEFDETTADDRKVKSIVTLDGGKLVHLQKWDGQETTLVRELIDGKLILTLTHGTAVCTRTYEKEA
Sequence of FABP7 (O15540 whole entry, species assumed): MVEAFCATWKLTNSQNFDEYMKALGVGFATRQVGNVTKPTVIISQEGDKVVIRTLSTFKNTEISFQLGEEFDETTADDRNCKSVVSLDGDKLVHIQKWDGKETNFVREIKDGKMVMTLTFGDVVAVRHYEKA

For `CC(C)Oc1nc(NC(=O)CSCC(=O)O)c(Cl)cc1Cl` [PD152, 2-((2-((3,5-dichloro-6-isopropoxypyridin-2-yl)amino)-2-oxoethyl)thio)acetic acid], the Fold increase ([1]; absence of S9, 0.0312 μg/plate) was 1, the “Mean number of revertants” value ([1]; absence of S9, 0.0312 μg/plate) was 41 and the Fold increase ([1]; absence of S9, 0.1 μg/plate) was 1. For the same compound, the “Mean number of revertants” value ([1]; absence of S9, 0.1 μg/plate) was 39, the Fold increase ([1]; absence of S9, 0.316 μg/plate) was 1 and the “Mean number of revertants” value ([1]; absence of S9, 0.316 μg/plate) was 41. For the same compound, the Fold increase ([1]; absence of S9, 1 μg/plate) was 1, the “Mean number of revertants” value ([1]; absence of S9, 1 μg/plate) was 39 and the Fold increase ([1]; absence of S9, 3.16 μg/plate) was 1. For the same compound, the “Mean number of revertants” value ([1]; absence of S9, 3.16 μg/plate) was 42, the Fold increase ([1]; absence of S9, 10 μg/plate) was 1 and the “Mean number of revertants” value ([1]; absence of S9, 10 μg/plate) was 40. The Fold increase ([1]; absence of S9, 31.6 μg/plate) was 1, the “Mean number of revertants” value ([1]; absence of S9, 31.6 μg/plate) was 42 and the Fold increase ([1]; absence of S9, 100 μg/plate) was 1. The “Mean number of revertants” value ([1]; absence of S9, 100 μg/plate) was 42, the Fold increase ([1]; absence of S9, 316 μg/plate) was 1 and the “Mean number of revertants” value ([1]; absence of S9, 316 μg/plate) was 40. For the same compound, the Fold increase ([1]; absence of S9, 1000 μg/plate) was 1, the “Mean number of revertants” value ([1]; absence of S9, 1000 μg/plate) was 42 and the Fold increase [1, 7] was 1. For the same compound, the “Mean number of revertants” value [1, 7] was 39, the Fold increase ([1]; presence of S9, 0.1 μg/plate) was 1 and the “Mean number of revertants” value ([1]; presence of S9, 0.1 μg/plate) was 42. For the same compound, the Fold increase ([1]; presence of S9, 0.316 μg/plate) was 1, the “Mean number of revertants” value ([1]; presence of S9, 0.316 μg/plate) was 40 and the Fold increase ([1]; presence of S9, 1 μg/plate) was 1. The “Mean number of revertants” value ([1]; presence of S9, 1 μg/plate) was 38, the Fold increase ([1]; presence of S9, 3.16 μg/plate) was 1 and the “Mean number of revertants” value ([1]; presence of S9, 3.16 μg/plate) was 38. For the same compound, the Fold increase ([1]; presence of S9, 10 μg/plate) was 1, the “Mean number of revertants” value ([1]; presence of S9, 10 μg/plate) was 41 and the Fold increase ([1]; presence of S9, 31.6 μg/plate) was 1. For the same compound, the “Mean number of revertants” value ([1]; presence of S9, 31.6 μg/plate) was 41, the Fold increase ([1]; presence of S9, 100 μg/plate) was 1 and the “Mean number of revertants” value ([1]; presence of S9, 100 μg/plate) was 39. For the same compound, the Fold increase ([1]; presence of S9, 316 μg/plate) was 1, the “Mean number of revertants” value ([1]; presence of S9, 316 μg/plate) was 40 and the Fold increase ([1]; presence of S9, 1000 μg/plate) was 1. The “Mean number of revertants” value ([1]; presence of S9, 1000 μg/plate) was 40, the Thalf ([2]; oral 10 mg/kg) was 2.6 h and the clearance [2, 8] was 16.1 mL/min/kg. The half-life [2, 8] was 3 to 4 h, the bioavailability ([2]; mouse, plasma, single oral dose 10 mg/kg) was 75% and the “Inhibition of OVCAR5 proliferation” value [3] was “inhibited proliferation of the two cell lines in a dose-dependent manner”. The Kd [4] was 188 nM, the Kd [5] was 989 nM and the “Activation of transcription by PPARα” value [6] was “None of these tested compounds activated; also recorded: none of the tested compounds PD151 and PD152 activated transcription”.
